The text below walks through data of patent publication US20240217983A1, “GPR119 AGONISTS” (Kallyope, Inc., priority 2021, published 2024).

In the experiment the target is T1, human GPR119 (hGPR119) (Homo sapiens, UniProt Q8TDV5).
T1 construct: expressed in transfected cells
T1 sequence (Q8TDV5 1-335): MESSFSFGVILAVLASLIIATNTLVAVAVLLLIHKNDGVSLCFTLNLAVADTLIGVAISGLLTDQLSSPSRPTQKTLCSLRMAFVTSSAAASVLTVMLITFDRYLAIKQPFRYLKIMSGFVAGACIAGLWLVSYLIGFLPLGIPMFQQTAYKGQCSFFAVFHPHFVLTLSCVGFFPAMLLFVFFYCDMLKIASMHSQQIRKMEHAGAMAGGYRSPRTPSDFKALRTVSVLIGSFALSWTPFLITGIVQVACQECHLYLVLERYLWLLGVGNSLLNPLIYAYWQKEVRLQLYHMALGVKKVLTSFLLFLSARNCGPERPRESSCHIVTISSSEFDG
The experiment is described as follows: cAMP accumulation assay (Cisbio cAMP Gs dynamic HTRF kit) in CHO-K1 cells stably expressing human GPR119. The class given is cell-based. As to conditions: 4-parameter fit; for Emax: 1 h, % activity normalized to Max and Min controls; for EC50: 60 minutes at 37° C. The essentials:
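CHO-K1 cells stably expressing hGPR119, used as assay-ready frozen stocks at ~10,000 cells/well, exposed to compound dose-response in stimulation buffer with Tween 80 for 60 min at 37° C. cAMP read by HTRF (665/620 nm ratio), normalised to Max/Min controls; EC50 and Max activity from 4-parameter fit.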

SMILES strings stand for the structures.

In the case of `O=C(Cc1ccc(OCCCC2CCN(c3ncc(Cl)cn3)CC2)cc1F)N1CC2(CCN2C[C@H](O)[C@H](O)[C@H](O)CO)C1` [Example 32, 2-(4-(3-(1-(5-chloropyrimidin-2-yl)piperidin-4-yl)propoxy)-2-fluorophenyl)-1-(1-((2S,3S,4R)-2,3,4,5-tetrahydroxypentyl)-1,6-diazaspiro[3.3]heptan-6-yl)ethan-1-one], the maximum response (Emax) fell in the range of 100 to 130% and the EC50 is ≤ 0.1 µM.
For `O=C(Cc1ccc(OCCCC2CCN(c3ncc(Cl)cn3)CC2)cc1F)N1CC2(CCN2C[C@H](O)[C@@H](O)[C@H](O)[C@H](O)CO)C1` [Example 33, 2-(4-(3-(1-(5-chloropyrimidin-2-yl)piperidin-4-yl)propoxy)-2-fluorophenyl)-1-(1-((2S,3R,4R,5R)-2,3,4,5,6-pentahydroxyhexyl)-1,6-diazaspiro[3.3]heptan-6-yl)ethan-1-one] the same measures were 100 to 130% and ≤ 0.1 µM.
For `O=C(Cc1ccc(OCCCC2CCN(c3ncc(Cl)cn3)CC2)cc1F)N1C[C@@H]2CCN(C[C@H](O)[C@H](O)[C@H](O)CO)[C@@H]2C1` [Example 34, 2-(4-(3-(1-(5-chloropyrimidin-2-yl)piperidin-4-yl)propoxy)-2-fluorophenyl)-1-((3aS,6aS)-1-((2S,3S,4R)-2,3,4,5-tetrahydroxypentyl)hexahydropyrrolo[3,4-b]pyrrol-5(1H)-yl)ethan-1-one] the same measures were ≥ 130% and ≤ 0.1 µM.
The matching figures for `O=C(Cc1ccc(OCCCC2CCN(c3ncc(Cl)cn3)CC2)cc1F)N1C[C@@H]2CCN(C[C@H](O)[C@@H](O)[C@H](O)[C@H](O)CO)[C@@H]2C1` [Example 35, 2-(4-(3-(1-(5-chloropyrimidin-2-yl)piperidin-4-yl)propoxy)-2-fluorophenyl)-1-((3aS,6aS)-1-((2S,3R,4R,5R)-2,3,4,5,6-pentahydroxyhexyl)hexahydropyrrolo[3,4-b]pyrrol-5(1H)-yl)ethan-1-one]: 100 to 130% and ≤ 0.1 µM.
For `O=C(Cc1ccc(OCCCC2CCN(c3ncc(Cl)cn3)CC2)cc1F)N1C[C@H]2CN(C[C@H](O)[C@H](O)[C@H](O)CO)[C@H]2C1` [Example 36, 2-(4-(3-(1-(5-chloropyrimidin-2-yl)piperidin-4-yl)propoxy)-2-fluorophenyl)-1-((1R,5R)-6-((2S,3S,4R)-2,3,4,5-tetrahydroxypentyl)-3,6-diazabicyclo[3.2.0]heptan-3-yl)ethan-1-one], the Emax lay within 100 to 130% and the half-maximal effective concentration (EC50) lay in the range of 0.1 to 1 µM.
The compound `O=C(Cc1ccc(OCCCC2CCN(c3ncc(Cl)cn3)CC2)cc1F)N1C[C@H]2CN(C[C@H](O)[C@@H](O)[C@H](O)[C@H](O)CO)[C@H]2C1` [Example 37, 2-(4-(3-(1-(5-chloropyrimidin-2-yl)piperidin-4-yl)propoxy)-2-fluorophenyl)-1-((1R,5R)-6-((2S,3R,4R,5R)-2,3,4,5,6-pentahydroxyhexyl)-3,6-diazabicyclo[3.2.0]heptan-3-yl)ethan-1-one] gave a maximal effect (Emax) of 100 to 130% and an EC50 of 0.1 to 1 µM.
For `O=C(Cc1ccc(OCCCC2CCN(c3ncc(Cl)cn3)CC2)cc1F)N1C[C@@H]2CN(C[C@H](O)[C@H](O)[C@H](O)CO)C[C@@H]21` [Example 38, 2-(4-(3-(1-(5-chloropyrimidin-2-yl)piperidin-4-yl)propoxy)-2-fluorophenyl)-1-((1S,5R)-3-((2S,3S,4R)-2,3,4,5-tetrahydroxypentyl)-3,6-diazabicyclo[3.2.0]heptan-6-yl)ethan-1-one] the same measures were 100 to 130% and ≤ 0.1 µM.
For `O=C(Cc1ccc(OCCCC2CCN(c3ncc(Cl)cn3)CC2)cc1F)N1C[C@@H]2CN(C[C@H](O)[C@@H](O)[C@H](O)[C@H](O)CO)C[C@@H]21` [Example 39, 2-(4-(3-(1-(5-chloropyrimidin-2-yl)piperidin-4-yl)propoxy)-2-fluorophenyl)-1-((1S,5R)-3-((2S,3R,4R,5R)-2,3,4,5,6-pentahydroxyhexyl)-3,6-diazabicyclo[3.2.0]heptan-6-yl)ethan-1-one] the same measures were 100 to 130% and ≤ 0.1 µM.
The matching figures for `O=C(Cc1ccc(OCCCC2CCN(c3ncc(Cl)cn3)CC2)cc1F)N1CCC12CN(C[C@H](O)[C@H](O)[C@H](O)CO)C2` [Example 40, 2-(4-(3-(1-(5-chloropyrimidin-2-yl)piperidin-4-yl)propoxy)-2-fluorophenyl)-1-(6-((2S,3S,4R)-2,3,4,5-tetrahydroxypentyl)-1,6-diazaspiro[3.3]heptan-1-yl)ethan-1-one]: 100 to 130% and 0.1 to 1 µM.
On to `O=C(Cc1ccc(OCCCC2CCN(c3ncc(Cl)cn3)CC2)cc1F)N1CCC12CN(C[C@H](O)[C@@H](O)[C@H](O)[C@H](O)CO)C2` [Example 41, 2-(4-(3-(1-(5-chloropyrimidin-2-yl)piperidin-4-yl)propoxy)-2-fluorophenyl)-1-(6-((2S,3R,4R,5R)-2,3,4,5,6-pentahydroxyhexyl)-1,6-diazaspiro[3.3]heptan-1-yl)ethan-1-one], for which the maximal response (Emax) lay in the range of 100 to 130% and the EC50 was > 10 µM.
For `O=C(Cc1ccc(OCCCC2CCN(c3ncc(Cl)cn3)CC2)cc1F)N1CCC2(CCN(C[C@H](O)[C@H](O)[C@H](O)CO)C2)C1` (stereo partly drawn) [Example 42, 2-(4-(3-(1-(5-chloropyrimidin-2-yl)piperidin-4-yl)propoxy)-2-fluorophenyl)-1-(7-((2S,3S,4R)-2,3,4,5-tetrahydroxypentyl)-2,7-diazaspiro[4.4]nonan-2-yl)ethan-1-one] the same measures were 100 to 130% and ≤ 0.1 µM.
For `O=C(Cc1ccc(OCCCC2CCN(c3ncc(Cl)cn3)CC2)cc1F)N1CCC2(CCN(C[C@H](O)[C@@H](O)[C@H](O)[C@H](O)CO)C2)C1` (stereo partly drawn) [Example 43, 2-(4-(3-(1-(5-chloropyrimidin-2-yl)piperidin-4-yl)propoxy)-2-fluorophenyl)-1-(7-((2S,3R,4R,5R)-2,3,4,5,6-pentahydroxyhexyl)-2,7-diazaspiro[4.4]nonan-2-yl)ethan-1-one] the same measures were 100 to 130% and ≤ 0.1 µM.
The matching figures for `O=C(Cc1ccc(OCCCC2CCN(c3ncc(Cl)cn3)CC2)cc1F)N1C[C@H]2CN(C[C@H](O)[C@H](O)[C@H](O)CO)C[C@H]2C1` [Example 44, 2-(4-(3-(1-(5-chloropyrimidin-2-yl)piperidin-4-yl)propoxy)-2-fluorophenyl)-1-((3aR,6aS)-5-((2S,3S,4R)-2,3,4,5-tetrahydroxypentyl)hexahydropyrrolo[3,4-c]pyrrol-2(1H)-yl)ethan-1-one]: 100 to 130% and ≤ 0.1 µM.
As for `O=C(Cc1ccc(OCCCC2CCN(c3ncc(Cl)cn3)CC2)cc1F)N1C[C@H]2CN(C[C@H](O)[C@@H](O)[C@H](O)[C@H](O)CO)C[C@H]2C1` [Example 45, 2-(4-(3-(1-(5-chloropyrimidin-2-yl)piperidin-4-yl)propoxy)-2-fluorophenyl)-1-((3aR,6aS)-5-((2S,3R,4R,5R)-2,3,4,5,6-pentahydroxyhexyl)hexahydropyrrolo[3,4-c]pyrrol-2(1H)-yl)ethan-1-one], the maximal effect (Emax) was 100 to 130% and the concentration for a half-maximal effect (EC50) was ≤ 0.1 µM.
As to `O=C(Cc1ccc(OCCCC2CCN(c3ncc(Cl)cn3)CC2)cc1F)N1C[C@H]2C[C@@H]1CN2C[C@H](O)[C@H](O)[C@H](O)CO` [Example 46, 2-(4-(3-(1-(5-chloropyrimidin-2-yl)piperidin-4-yl)propoxy)-2-fluorophenyl)-1-((1R,4R)-5-((2S,3S,4R)-2,3,4,5-tetrahydroxypentyl)-2,5-diazabicyclo[2.2.1]heptan-2-yl)ethan-1-one], the maximal effect (Emax) is ≥ 130% and the EC50 is ≤ 0.1 µM.
The matching figures for `O=C(Cc1ccc(OCCCC2CCN(c3ncc(Cl)cn3)CC2)cc1F)N1C[C@H]2C[C@@H]1CN2C[C@H](O)[C@@H](O)[C@H](O)[C@H](O)CO` [Example 47, 2-(4-(3-(1-(5-chloropyrimidin-2-yl)piperidin-4-yl)propoxy)-2-fluorophenyl)-1-((1R,4R)-5-((2S,3R,4R,5R)-2,3,4,5,6-pentahydroxyhexyl)-2,5-diazabicyclo[2.2.1]heptan-2-yl)ethan-1-one]: 100 to 130% and ≤ 0.1 µM.
For `O=C(Cc1ccc(OCCCC2CCN(c3ncc(Cl)cn3)CC2)cc1F)N1CC2CC(C1)N2C[C@H](O)[C@H](O)[C@H](O)CO` [Example 48, 2-(4-(3-(1-(5-chloropyrimidin-2-yl)piperidin-4-yl)propoxy)-2-fluorophenyl)-1-(6-((2S,3S,4R)-2,3,4,5-tetrahydroxypentyl)-3,6-diazabicyclo[3.1.1]heptan-3-yl)ethan-1-one] the same measures were ≥ 130% and ≤ 0.1 µM.
For `O=C(Cc1ccc(OCCCC2CCN(c3ncc(Cl)cn3)CC2)cc1F)N1CC2CC(C1)N2C[C@H](O)[C@@H](O)[C@H](O)[C@H](O)CO` [Example 49, 2-(4-(3-(1-(5-chloropyrimidin-2-yl)piperidin-4-yl)propoxy)-2-fluorophenyl)-1-(6-((2S,3R,4R,5R)-2,3,4,5,6-pentahydroxyhexyl)-3,6-diazabicyclo[3.1.1]heptan-3-yl)ethan-1-one] the same measures were 100 to 130% and ≤ 0.1 µM.
As to `O=C(Cc1ccc(OCCCC2CCN(c3ncc(Cl)cn3)CC2)cc1F)N1CCCN(C[C@H](O)[C@H](O)[C@H](O)CO)CC1` [Example 50, 2-(4-(3-(1-(5-chloropyrimidin-2-yl)piperidin-4-yl)propoxy)-2-fluorophenyl)-1-(4-((2S,3S,4R)-2,3,4,5-tetrahydroxypentyl)-1,4-diazepan-1-yl)ethan-1-one], the maximal response (Emax) was in the range of 100 to 130% and the EC50 was ≤ 0.1 µM.
